Results on 64 sequences are retold here after the OligoGym collection.

The target of this series is APOL1. The settings on record: ASO.

Where “and” joins values, the source holds several entries; their conditions need not be identical. Equal values may be shown once. After the bases stand the sugars from the 5' end (letter, count) and the backbone: PS all phosphorothioate, else s phosphorothioate and o phosphodiester by linkage. Methylation of C is not given here. e = 2'-O-(2-methoxyethyl) (MOE); k = constrained ethyl (cEt); d = 2'-deoxy (DNA)

Where the note is “A431, 2 µM”, “GGAATTATGGAATTGC (sugars kkkddddkekeddddd, PS)” returned a target mRNA inhibition of 55%.
For TCACATACTCTCTGGG (sugars k4 d9 k3, PS), the target mRNA inhibition is, setting by setting: (A431, 0.0625 µM) 24%; (A431, 0.25 µM) 62%; (A431, 1 µM) 77%.
Consider “GTGTTATATTTGATCC (sugars k2 d4 e3 k2 d5, PS)”, for which the target mRNA inhibition (A431, 0.04 µM) is 52% and 50%; the target mRNA inhibition (A431, 1 µM) came out at 98%; the target mRNA inhibition (A431, 2 µM) was 98%.
For the setting “A431, 2 µM”, “AAGTATTGCCAGCTAA (sugars kdddddkekekddddd, PS)” gave a target mRNA inhibition of 54%.
Consider CAGTTTTGTAAGTGCA (sugars k4 d9 k3, PS), for which the target mRNA inhibition is 96% (A431, 0.0625 µM); 98% (A431, 0.25 µM); 99% (A431, 1 µM).
With “AGATTGGCTCTGGCTC (sugars kddddkekekeddddd, PS)”, the target mRNA inhibition (A431, 2 µM) was 23%.
Take “TCAGATGGGTACTTCT (sugars kkddddekekeddddd, PS)”: the target mRNA inhibition worked out at 8% (A431, 0.0156 µM); 30% (A431, 0.0625 µM); 61% (A431, 0.25 µM); 86% (A431, 1 µM); 91% (A431, 2 µM).
Consider “CCGTCAATATATTCTT (sugars k3 d4 k3 e1 d5, PS)”, for which the target mRNA inhibition turned out to be 36% (A431, 0.0156 µM); 70% (A431, 0.0625 µM); 92% (A431, 0.25 µM); 96% (A431, 1 µM); 98% (A431, 2 µM).
The sequence GTCATTAGTGCTATAG (sugars k4 d9 k3, PS) yielded a target mRNA inhibition (A431, 0.0625 µM) of 68%; a target mRNA inhibition (A431, 0.25 µM) of 87%; a target mRNA inhibition (A431, 1 µM) of 93%.
For AGGTTTGGATGGAAGG (sugars k4 d9 k3, PS), in that order: 36%, 73% and 88%.
On to “GCATTCAGAATTTCCA (sugars k3 d4 k3 e1 d5, PS)”, for which the target mRNA inhibition turned out to be 33% (A431, 0.0156 µM); 73% (A431, 0.0625 µM); 90% (A431, 0.25 µM); 92% (A431, 1 µM); 95% (A431, 2 µM).
TTTTCACCATAGCACG (sugars k4 d9 k3, PS): the target mRNA inhibition by setting is: (A431, 0.0625 µM) 33%; (A431, 0.25 µM) 63%; (A431, 1 µM) 85%.
On to “TTTGTAAGTGCAACCA (sugars k3 d4 k3 e1 d5, PS)”, for which the target mRNA inhibition (A431, 2 µM) turned out to be 56%.
As to “ATTCAGAATTTCCACT (sugars kkddddkekekkdddd, PS)”, the target mRNA inhibition (A431, 2 µM) worked out at 57%.
Consider “GCTTTAAACTCAGGTG (sugars k2 d4 e4 k2 d4, PS)”, for which, where the note is “A431, 2 µM”, the target mRNA inhibition came out at 95%.
Under “A431, 2 µM”, “TCTATTAGAGGGCTAG (sugars kddddkekekeddddd, PS)” showed a target mRNA inhibition of 37%.
In turn, “TTTGTAAGTGCAACCA (sugars kkddddkekekkdddd, PS)” registered a target mRNA inhibition (A431, 2 µM) of 87%.
With “GCTAATTTTCTGACTG (sugars kkddddkekekddddd, PS)”, the target mRNA inhibition reads like this: (A431, 0.0156 µM) 28%; (A431, 0.04 µM) 50%; (A431, 0.0625 µM) 63%; (A431, 0.25 µM) 86%; (A431, 1 µM) 92%; (A431, 2 µM) 96%.
For the sequence “AAGATTGGCTCTGGCT (sugars kkddddekekeddddd, PS)”, the target mRNA inhibition (A431, 2 µM) turned out to be 66%.
For the sequence “AAGCTTTAAACTCAGG (sugars k2 d4 e3 k2 d5, PS)”, the target mRNA inhibition by setting is: (A431, 0.0156 µM) 15%; (A431, 0.0625 µM) 48%; (A431, 0.25 µM) 76%; (A431, 1 µM) 92%; (A431, 2 µM) 95%.
For the sequence ACTCCTTATGTTTTGA (sugars k4 d9 k3, PS), the target mRNA inhibition stood at 46% (A431, 0.0625 µM); 75% (A431, 0.25 µM); 91% (A431, 1 µM).
Sequence “ATTCTCATGGTACAGG (sugars kkdddddkekeddddd, PS)” displayed a target mRNA inhibition (A431, 0.0156 µM) of 18%; a target mRNA inhibition (A431, 0.0625 µM) of 46%; a target mRNA inhibition (A431, 0.25 µM) of 74%; a target mRNA inhibition (A431, 1 µM) of 90%; a target mRNA inhibition (A431, 2 µM) of 95%.
For “GTTCAAAAGCAGCATT (sugars kkddddkdkdkddddd, PS)”, the target mRNA inhibition (A431, 2 µM) stood at 73%.
TGTTTGCATTTGGGTC (sugars k4 d9 k3, PS): the target mRNA inhibition by setting is: (A431, 0.0625 µM) 90% and 83%; (A431, 0.25 µM) 98% and 94%; (A431, 1 µM) 99% and 96%.
For “TTGTAAGTGCAACCAA (sugars kkdddddkekeddddd, PS)”, the target mRNA inhibition (A431, 2 µM) was determined as 81%.
“TTTGTAAGTGCAACCA (sugars kkddddkekekddddd, PS)” yielded a target mRNA inhibition (A431, 2 µM) of 98%.
On the same count and under the same terms, as for “GGGAATTATGGAATTG (sugars k3 d4 k3 e1 d5, PS)”, the figure is 77%.
For CCCTTTTGGCACCTTC (sugars k4 d9 k3, PS), the target mRNA inhibition is 52% and 73% (A431, 0.0625 µM); 81% and 88% (A431, 0.25 µM); 94% and 93% (A431, 1 µM).
The sequence AATAATGGTAGGTCTA (sugars k4 d9 k3, PS) had a target mRNA inhibition (A431, 0.0625 µM) of 41%; a target mRNA inhibition (A431, 0.25 µM) of 71%; a target mRNA inhibition (A431, 1 µM) of 84%.
For “CAACACATCATTGGGT (sugars kkkddddkekekdddd, PS)”, the target mRNA inhibition (A431, 2 µM) came to 30%.
Regarding CAGATTCTGTGTGCTC (sugars k4 d9 k3, PS), the target mRNA inhibition is, setting by setting: (A431, 0.0625 µM) 51%; (A431, 0.25 µM) 68%; (A431, 1 µM) 75%.
With ATTCCTGGGCAGTTCA (sugars k4 d9 k3, PS), the target mRNA inhibition reads like this: (A431, 0.0625 µM) 37%; (A431, 0.25 µM) 43%; (A431, 1 µM) 58%.
For CATTCAGAATTTCCAC (sugars k4 d9 k3, PS), the target mRNA inhibition was 15% (A431, 0.04 µM); 56% (A431, 0.0625 µM); 81% (A431, 0.25 µM); 90% and 81% (A431, 1 µM).
For the sequence GCTAATTTTCTGACTG (sugars k4 d9 k3, PS), the target mRNA inhibition is 77% and 60% (A431, 0.0625 µM); 95% and 85% (A431, 0.25 µM); 98% and 91% (A431, 1 µM).
In the case of ATTCTATTAGAGGGCT (sugars k4 d9 k3, PS), the target mRNA inhibition (A431, 0.0156 µM) stood at 31%; the target mRNA inhibition (A431, 0.0625 µM) is 54% and 53% and 55%; the target mRNA inhibition (A431, 0.25 µM) is 82% and 76% and 86%.
The sequence “GTGTTATATTTGATCC (sugars kkddddkekekddddd, PS)” came in with a target mRNA inhibition (A431, 2 µM) of 78%.
Regarding CTGTTCTAACTCTTGG (sugars k4 d9 k3, PS), the target mRNA inhibition (A431, 0.0625 µM) is 61%; the target mRNA inhibition (A431, 0.25 µM) came out at 79%; the target mRNA inhibition (A431, 1 µM) is 87%.
Sequence “TGTTATATTTGATCCT (sugars kkddddkekekkdddd, PS)” displayed a target mRNA inhibition (A431, 2 µM) of 46%.
For the sequence “GAACGCAATGCTGACT (sugars kkkddddkekekdddd, PS)”, the target mRNA inhibition (A431, 2 µM) came to 48%.
For the sequence “ACTTTATACCAGTGTC (sugars kkkddddkekeddddd, PS)”, the target mRNA inhibition (A431, 2 µM) came out at 65%.
The same measure, in the same setting: with “GAAGATTGGCTCTGGC (sugars kkkddddkekeddddd, PS)” the figure was 75%; with “GTTCTAACTCTTGGGC (sugars kkkddddkdkdkdddd, PS)”, 73%; with “GTTATATTTGATCCTC (sugars k2 d4 e4 k2 d4, PS)”, 69%.
“CAGTTTTGTAAGTGCA (sugars k2 d4 e3 k2 d5, PS)” showed a target mRNA inhibition (A431, 2 µM) of 92%.
The sequence “TCAGATGGGTACTTCT (sugars k2 d4 e3 k2 d5, PS)” gave a target mRNA inhibition (A431, 2 µM) of 88%.
For the sequence “TTATATTTGATCCTCA (sugars kkddddkekekddddd, PS)”, the target mRNA inhibition (A431, 2 µM) was determined as 91%.
In the case of “TTTATACCAGTGTCTT (sugars k3 d4 k3 e1 d5, PS)”, the target mRNA inhibition (A431, 2 µM) stood at 80%.
On the same count and under the same terms, with “AAGCTTTAAACTCAGG (sugars k3 d4 k3 e1 d5, PS)” the figure was 72%.
As for GCAAGGTTGTCCAGAG (sugars k4 d9 k3, PS), the target mRNA inhibition is, setting by setting: (A431, 0.0625 µM) 43%; (A431, 0.25 µM) 61%; (A431, 1 µM) 61%.
On to TTTCATATTCACCCGA (sugars k4 d9 k3, PS), for which the target mRNA inhibition reads like this: (A431, 0.0625 µM) 46%; (A431, 0.25 µM) 68%; (A431, 1 µM) 86%.
Taken in the same sequence, the figures for ACACATCATTGGGTTA (sugars k4 d9 k3, PS) were 54%, 75% and 87%.
As to “TCTATTAGAGGGCTAG (sugars kdddddkekekddddd, PS)”, the target mRNA inhibition (A431, 2 µM) came out at 42%.
Still for that read-out and setting: as for “TGAAGATTGGCTCTGG (sugars k3 d4 k3 e1 d5, PS)”, the figure is 61%; as for “ACGCAATGCTGACTTG (sugars kkddddkekekkdddd, PS)”, 72%.
Turning to TACATTTGGAGATCTG (sugars k4 d9 k3, PS), the target mRNA inhibition reads like this: (A431, 0.0625 µM) 61%; (A431, 0.25 µM) 80%; (A431, 1 µM) 90%.
“GCTTTAAACTCAGGTG (sugars kkddddkekekkdddd, PS)” displayed a target mRNA inhibition (A431, 2 µM) of 50%.
The sequence “GAGTATTGTTTTTGTG (sugars kkddddkekekddddd, PS)” displayed a target mRNA inhibition (A431, 2 µM) of 90%.
Where the note is “A431, 2 µM”, “CTGTTCTAACTCTTGG (sugars kkddddkekekddddd, PS)” yielded a target mRNA inhibition of 88%.
As for CACAGCATTGAGTACA (sugars k4 d9 k3, PS), the target mRNA inhibition by setting is: (A431, 0.0625 µM) 44%; (A431, 0.25 µM) 66%; (A431, 1 µM) 86%.
With “AAGATTGGCTCTGGCT (sugars kkddddkdkdkddddd, PS)”, for the setting “A431, 2 µM”, the target mRNA inhibition was determined as 65%.
In turn, “TGTTATATTTGATCCT (sugars kddddkekekeddddd, PS)” registered a target mRNA inhibition (A431, 2 µM) of 51%.
As to “GTATTTCTTGATGTGG (sugars kkddddkekekkdddd, PS)”, the target mRNA inhibition (A431, 2 µM) was 52%.
On the same count and under the same terms, as for “ATTCTATTAGAGGGCT (sugars kddddkekekeddddd, PS)”, the figure is 34%.
The sequence “AGTATTGCCAGCTAAG (sugars k3 d4 k3 e1 d5, PS)” gave a target mRNA inhibition (A431, 2 µM) of 89%.
